Results published in US20250263408A1 (Uniquest Pty Ltd, priority 2022, published 2025).

How the values were obtained:
[1] = tested on: Ba/F3-WT (wild type) cells; experiment: Ba/F3 Proliferation Assay, Ba/F3-WT (wild type) cells with mIL-3 (Resazurin); assay type: cell-based; details: Mus musculus, BaF3, 48 h, Ba/F3-WT cells +mIL-3, 48-hour incubation
[2] = molecular target: T1, Ba/F3-Syk cells (Homo sapiens, UniProt P43405); experiment: Ba/F3 Proliferation Assay, Ba/F3-Syk cells (Resazurin); assay type: cell-based; details: 48-hour incubation
T1 construct: fused on or other part: Possible but unprinted fusion partner: TEL (ETV6), the usual partner for Ba/F3 lines transformed by Syk; Nothing on a partner is printed

[3] = molecular target: T2, Syk (Homo sapiens, UniProt P43405); experiment: Syk Biochemical Assay (ADP-Glo luminescence); details: ATP 40 μM final, 60 minutes, read-out: SYK Biochem IC50
T2 construct: purchased Promega
Protocol: Compounds were serially diluted in 100% DMSO, prior to an intermediate dilution in water. In a low volume white 384-well Proxiplate (Perkin Elmer), 1 μL of compound (0.4% final DMSO) was added to 3 μL of 10 ng/well Syk (Promega) and 0.2 mg/mL Poly-E4Y1 substrate (Promega) in assay buffer (final 40 mM Tris-HCl pH 7.4, 20 mM MgCl2, 0.1 mg/mL BSA) for 5 minutes. The reaction was initiated by addition of 1 μL of ATP (40 μM final) and allowed to proceed for 60 minutes at room temperature. The reaction was terminated by addition of 5 μL of ADP-Glo Reagent Mix (Promega) containing 1 mM MgCl2 for 45 minutes at room temperature. 10 μL of Kinase Detection Reagent (Promega) was added and incubated for 10 minutes at room temperature, before luminescence was measured using an Ensight Multimode Plate Reader (Perkin Elmer).

Compound	EC50 [1]	EC50 [2]	IC50 [3]
CC1(C)CNC[C@@H](COc2cc(-c3cnn(C4CC4)c3)cc3ncccc23)O1 [Compound 3.8, 7-(1-cyclopropyl-1H-pyrazol-4-yl)-5-{[(2S)-6,6-dimethylmorpholin-2-yl]methoxy}quinoline]	1.97 µM	0.0509 µM	0.0237 µM
CC(C)(C)n1cc(-c2cc(OC[C@@H]3CNCCCO3)c3cccnc3c2)cn1 [Compound 3.14, 7-(1-tert-butyl-1H-pyrazol-4-yl)-5-{[(2S)-1,4-oxazepan-2-yl]methoxy}quinoline]	6.49 µM	0.0545 µM	0.0571 µM
CC(C)(C)n1ccc(-c2cc(OC[C@@H]3CNCCO3)c3cccnc3c2)c1 [Compound 3.15, 7-(1-tert-butyl-1H-pyrrol-3-yl)-5-{[(2S)-morpholin-2-yl]methoxy}quinoline]	5.84 µM	0.0304 µM	0.0396 µM
Cn1ccc(-c2cc(OC[C@@H]3CNCC4(CC4)O3)c3cccnc3c2)c1 [Compound 3.17, 7-(1-methyl-1H-pyrrol-3-yl)-5-{[(5S)-4-oxa-7-azaspiro[2.5]octan-5-yl]methoxy}quinoline]	2.22 µM	0.0518 µM	0.0437 µM
Cn1cc(-c2cc(OC[C@@H]3CNCC4(CC4)O3)c3cccnc3c2)cn1 [Compound 3.19, 7-(1-methyl-1H-pyrazol-4-yl)-5-{[(5S)-4-oxa-7-azaspiro[2.5]octan-5-yl]methoxy}quinoline]	6.8 µM	0.0991 µM	0.0511 µM
CC(C)n1cc(-c2cc(OC[C@@H]3CNC[C@@H](C)O3)c3cccnc3c2)cn1 [Compound 3.23, 5-{[(2S,6R)-6-methylmorpholin-2-yl]methoxy}-7-[1-(propan-2-yl)-1H-pyrazol-4-yl]quinoline]	0.941 µM	0.0121 µM	0.0126 µM
C[C@@H]1CNC[C@@H](COc2cc(-c3ccn(C)c3)cc3ncccc23)O1 [Compound 3.24, 7-(1-methyl-1H-pyrrol-3-yl)-5-{[(2S,6R)-6-methylmorpholin-2-yl]methoxy}quinoline]	2.26 µM	0.0282 µM	0.0164 µM
FC(F)Cn1ccc(-c2cc3ncccc3c(OC[C@@H]3CNCCO3)n2)c1 [Compound 6.5, 7-[1-(2,2-difluoroethyl)-1H-pyrrol-3-yl]-5-{[(2S)-morpholin-2-yl]methoxy}-1,6-naphthyridine]	2.14 µM	0.063 µM	0.0142 µM
COCCn1ccc(-c2cc3ncccc3c(OC[C@@H]3CNCCO3)n2)c1 [Compound 6.10, 7-[1-(2-methoxyethyl)-1H-pyrrol-3-yl]-5-{[(2S)-morpholin-2-yl]methoxy}-1,6-naphthyridine]	1.98 µM	0.106 µM	0.0213 µM
c1cnc2cc(-c3ccn(C4COC4)c3)nc(OC[C@@H]3CNCCO3)c2c1 [Compound 6.11, 5-{[(2S)-morpholin-2-yl]methoxy}-7-[1-(oxetan-3-yl)-1H-pyrrol-3-yl]-1,6-naphthyridine]	1.68 µM	0.0307 µM	0.0246 µM
CC1(C)CNC[C@@H](COc2nc(-c3ccn(CC(F)F)c3)cc3ncccc23)O1 [Compound 6.13, 7-[1-(2,2-difluoroethyl)-1H-pyrrol-3-yl]-5-{[(2S)-6,6-dimethylmorpholin-2-yl]methoxy}-1,6-naphthyridine]	2.05 µM	0.0218 µM	0.0146 µM
COCCn1ccc(-c2cc3ncccc3c(OC[C@@H]3CNCC(C)(C)O3)n2)c1 [Compound 6.16, 5-{[(2S)-6,6-dimethylmorpholin-2-yl]methoxy}-7-[1-(2-methoxyethyl)-1H-pyrrol-3-yl]-1,6-naphthyridine]	3.12 µM	0.0419 µM	0.0284 µM
CC1(C)CNC[C@@H](COc2nc(-c3cnn(CC(F)F)c3)cc3ncccc23)O1 [Compound 6.20, 7-[1-(2,2-difluoroethyl)-1H-pyrazol-4-yl]-5-{[(2S)-6,6-dimethylmorpholin-2-yl]methoxy}-1,6-naphthyridine]	2.18 µM	0.0321 µM	0.0091 µM
CC(C)n1ccc(-c2cc3ncccc3c(OC[C@@H]3CNCC4(CC4)O3)n2)c1 [Compound 6.22, 5-{[(5S)-4-oxa-7-azaspiro[2.5]octan-5-yl]methoxy}-7-[1-(propan-2-yl)-1-H-pyrrol-3-yl]-1,6-naphthyridine]	2.09 µM	0.0112 µM	0.0143 µM
COCCn1ccc(-c2cc3ncccc3c(OC[C@@H]3CNCC4(CC4)O3)n2)c1 [Compound 6.23, 7-[1-(2-methoxyethyl)-1H-pyrrol-3-yl]-5-{[(5S)-4-oxa-7-azaspiro[2.5]octan-5-yl]methoxy}-1,6-naphthyridine]	2.1 µM	0.0284 µM	0.0559 µM
CC1(C)CNC[C@@H](COc2nc(-c3ccn(C4COC4)c3)cc3ncccc23)O1 [Compound 6.25, 5-{[(2S)-6,6-dimethylmorpholin-2-yl]methoxy}-7-[1-(oxetan-3-yl)-1H-pyrrol-3-yl]-1,6-naphthyridine]	1.76 µM	0.0086 µM	0.0205 µM
C[C@@H](Oc1nc(-c2ccn(CC(F)F)c2)cc2ncccc12)[C@@H]1CNCCO1 [Compound 6.30, 7-[1-(2,2-difluoroethyl)-1H-pyrrol-3-yl]-5-[(1R)-1-[(2S)-morpholin-2-yl]ethoxy]-1,6-naphthyridine]	1.39 µM	0.0277 µM	0.0141 µM
CC1(C)CNC[C@@H](COc2cc(-c3ccn(CC(F)F)c3)cc3ncccc23)O1 [Compound 7.6, 7-[1-(2,2-difluoroethyl)-1H-pyrrol-3-yl]-5-{[(2S)-6,6-dimethylmorpholin-2-yl]methoxy}quinoline]	1.77 µM	0.0285 µM	0.0176 µM
CC(C)n1ccc(-c2cc(OC[C@@H]3CNCCCO3)c3cccnc3c2)c1 [Compound 7.10, 5-{[(2S)-1,4-oxazepan-2-yl]methoxy}-7-[1-(propan-2-yl)-1H-pyrrol-3-yl]quinoline]	3.88 µM	0.0447 µM	0.0367 µM
c1cnc2cc(-c3ccn(C4COC4)c3)cc(OC[C@@H]3CNCCO3)c2c1 [Compound 7.12, 5-{[(2S)-morpholin-2-yl]methoxy}-7-[1-(oxetan-3-yl)-1H-pyrrol-3-yl]quinoline]	1.56 µM	0.0233 µM	0.0293 µM
COCCn1ccc(-c2cc(OC[C@@H]3CNCC4(CC4)O3)c3cccnc3c2)c1 [Compound 7.14, 7-[1-(2-methoxyethyl)-1H-pyrrol-3-yl]-5-{[(5S)-4-oxa-7-azaspiro[2.5]octan-5-yl]methoxy}quinoline]	3.21 µM	0.0225 µM	0.0512 µM

The next lines start with the values.

EC50 [1]	EC50 [2]	IC50 [3]	Compound
0.833 µM	0.0056 µM	0.0057 µM	CC(C)n1ccc(-c2cc(OC[C@@H]3CNCC(C)(C)O3)c3nccnc3c2)c1 [Compound 8.3, 5-{[(2S)-6,6-dimethylmorpholin-2-yl]methoxy}-7-[1-(propan-2-yl)-1H-pyrrol-3-yl]quinoxaline]
0.645 µM	0.0082 µM	0.0074 µM	COCCn1ccc(-c2cc(OC[C@@H]3CNCC(C)(C)O3)c3nccnc3c2)c1 [Compound 8.4, 5-{[(2S)-6,6-dimethylmorpholin-2-yl]methoxy}-7-[1-(2-methoxyethyl)-1H-pyrrol-3-yl]quinoxaline]
0.735 µM	0.0045 µM	0.0052 µM	CC1(C)CNC[C@@H](COc2cc(-c3ccn(CC(F)F)c3)cc3nccnc23)O1 [Compound 8.5, 7-[1-(2,2-difluoroethyl)-1H-pyrrol-3-yl]-5-{[(2S)-6,6-dimethylmorpholin-2-yl]methoxy}quinoxaline]
0.969 µM	0.00697 µM	0.0108 µM	CC(C)n1ccc(-c2cc(OC[C@@H]3CNCCO3)c3nccnc3c2)c1 [Compound 8.6, 5-{[(2S)-morpholin-2-yl]methoxy}-7-[1-(propan-2-yl)-1H-pyrrol-3-yl]quinoxaline]
1.27 µM	0.0162 µM	0.0112 µM	FC(F)Cn1ccc(-c2cc(OC[C@@H]3CNCCO3)c3nccnc3c2)c1 [Compound 8.8, 7-[1-(2,2-difluoroethyl)-1H-pyrrol-3-yl]-5-{[(2S)-morpholin-2-yl]methoxy}quinoxaline]
1.62 µM	0.0107 µM	0.0118 µM	CC(C)n1ccc(-c2cc(OC[C@@H]3CNCCCO3)c3nccnc3c2)c1 [Compound 8.10, 5-{[(2S)-1,4-oxazepan-2-yl]methoxy}-7-[1-(propan-2-yl)-1H-pyrrol-3-yl]quinoxaline]
0.684 µM	0.0043 µM	0.0147 µM	CC(C)n1ccc(-c2cc(OC[C@@H]3CNCC4(CCC4)O3)c3nccnc3c2)c1 [Compound 8.17, 5-{[(6S)-5-oxa-8-azaspiro[3.5]nonan-6-yl]methoxy}-7-[1-(propan-2-yl)-1H-pyrrol-3-yl]quinoxaline]
0.872 µM	0.0064 µM	0.0065 µM	FC(F)Cn1ccc(-c2cc(OC[C@@H]3CNCC4(CCC4)O3)c3nccnc3c2)c1 [Compound 8.19, 7-[1-(2,2-difluoroethyl)-1H-pyrrol-3-yl]-5-{[(6S)-5-oxa-8-azaspiro[3.5]nonan-6-yl]methoxy}quinoxaline]
